The record followed here is US10106565B2 (priority 2008, dated 2018).

Assay [1] concerns osteoclasts differentiated from human monocytes on bone matrix. As to the kind of experiment: Bone resorption in vitro (Crosslaps assay, CTX release). In kind it is cell-based. The conditions noted are these: for inhibition at 0.2 µM: 200 nM in differentiating medium; for inhibition at 20 µM: Monocyte, monocytes pre-incubated (6 hours, 20 μM) before differentiation. As for the experimental part:
(§1) PBMC from adult healthy volunteers are prepared as described in example 1.
Monocytes are then purified as described in section 4.2.
Monocytes were cultured in bone matrix 96-well plates (OsteoAssay Human bone plate, Lonza, USA) and differentiated into osteoclasts in the presence of M-CSF and sRANK-Ligand as described in section 4.2. Supernatants were collected and bone resorption was evaluated using a Crosslaps assay (Nordicbioscience, Danemark) which measures collagen degradation fragments.

Assay [2] deals with mice immunized against myelin oligodendrocyte protein peptide 35-55. The assay can be described thus: Experimental Autoimmune Encephalomyelitis (EAE) mouse model. In kind it is in vivo. The conditions noted are these: 45 days post-immunization, control about 4. An excerpt:
Experimental Autoimmune Encephalomyelitis (EAE) is an inflammatory disease of the Central Nervous System (CNS) that shares clinical and immunopathological similarities with Multiple Sclerosis (MS). The model we have chosen is the classical model of active EAE induced by an immunization against myelin oligodendrocyte protein (MΦG) peptide 35-55 in mice. This leads to a chronic-progressive form of EAE resembling MS. Therefore, it is considered as a good model. Disease severity is scored on a clinical scale of 0 to 5 (0 being no detectable sign of EAE, 4 being tetraparalysis and 5 moribund or death). After MΦG-immunization, EAE scores for motor functions have been evaluated daily for 45 days for each animal. A preventive protocol (FIG. 17A) and a therapeutic protocol (FIG. 17B) have been tested. In both cases, mice are immunized with the MΦG peptide at Day 0 (first arrow of FIGS. 17A and 17B, corresponding to day 0 post-immunization). In the preventive protocol, intravenous administration of 10 mg/kg of dendrimer ABP started at Day 1 (FIG. 17A, second arrow, corresponding to 1 day post-immunization) and then every three days. In the therapeutic protocol, administration of ABP started once the disease is established at Day 18 (FIG. 17B, second arrow, corresponding to 18 days post-immunization), in the same conditions as the preventive protocol.

In assay [3] the test system is human monocytes. The assay can be described thus: Differentiation of monocytes in osteoclasts (M-CSF and sRANK-Ligand). In kind it is cell-based. The protocol: as §1
Monocytes are then purified by negative selection using a kit containing a mixture of mouse anti-human mAbs and superparamagnetic polystyrene beads coated with a human anti-mouse IgG mAbs, according to the manufacturer's instructions (Dynal). The cells obtained after the purification are >90% pure.
Pure monocytes are activated or not during 6 hours with 20 μM of dendrimer Gc1. After three washings, activated and not activated monocytes are cultured for 21 days in α-MEM complete medium, i.e. supplemented with 10% of heat inactivated fetal calf serum (FCS) (Invitrogen), 2 mM L-glutamine, 100 U/mL penicillin and 100 μg/mL streptomycin (Cambrex Bioscience) in presence or not of 20 μM of dendrimer Gc1. To generate osteoclasts, 50 ng/mL of M-CSF (PeproTech) and 30 ng/mL of sRANK-Ligand (PeproTech) are added to the culture medium. Each three days, half medium is changed and 25 ng/mL of M-CSF and 100 ng/mL of sRANK-Ligand are added. At day 21, the cells are fixed and stained with the leucocyte phosphatase acid kit according to the manufacturer's instructions (Sigma-Aldrich).

The subject of assay [4] is purified CD4 T lymphocytes. In kind it is cell-based, human. The conditions noted are these: 20 μM dendrimer; anti-CD3/anti-CD28 microbeads and IL2; without dendrimer 88%. As for the experimental part: PBMC from adult healthy volunteers are prepared as described in example 5.1.
CD4 T lymphocytes are then purified from PBMC by positive selection using microbeads conjugated with anti-CD4 mAb, according to the manufacturer's instructions (Miltenyi Biotec). The cells obtained after the purification are >98% pure (as verified by flow cytometry).
Purified CD4 T lymphocytes are cultured at a final concentration of 1.5×10^6 cells/mL in complete RPMI 1640 medium (as described in example 5.1). Then, their proliferation is triggered by microbeads coated with anti-CD3 and anti-CD28 mAbs (Dynabeads®, Dynal Biotech ASA). Dendrimer Gc1 and its analogs are made soluble in sterile water at 2 mM and filtered through a 0.2 μm membrane before use at 20 μM in culture.
Proliferation of purified CD4 T lymphocytes is evaluated by flow cytometry by analyzing the intracellular dilution of a fluorescent probe: the CFSE.

The test system of assay [5] is IL-1ra−/− mice. The assay can be described thus: Spontaneous arthritis in IL-1ra-/- mice. In kind it is in vivo. The note with it: 10 mg/kg weekly intravenous from 8 weeks of age; at the age of 15 weeks. An excerpt: Dendrimer ABP (azabisphosphonate) or Gc1 (FIG. 16A) was initially compared to two other dendrimer-based systems, dendrimer azamonophosphonate (AMP) and dendrimer polypropyleneimine (PPI), for antiarthritic activity in mice, according to the following protocole, described by Hayder et al. Science Transl. Med. 2011, 3, 81ra35.
IL-1ra−/− mice develop spontaneous arthritis beginning at 4 weeks of age. By 10 weeks, 100% of mice show full-blown disease, with marked paw swelling. We assessed the effect of dendrimers ABP, AMP, and PPI in this model of arthritis via weekly intravenous injections (10 mg/kg) starting at 8 weeks of age. The evolution of inflammation and arthritis was followed by measuring the hind paw swelling and by clinical arthritic score. The arthritic score per animal was the sum of the scores attributed to the four paws (28).

Assay [6] deals with CD4+ T cells. The assay can be described thus: Intracellular detection of IL10 in CD4+ T cells after MLR. In kind it is cell-based, human. The conditions noted are these: PBL:monocytes 4:1, 5 hours re-stimulation; compared to MLR with class-monocytes. The protocol: Six days following the primary stimulation with one of the differently activated monocytes at a ratio of PBL:monocytes of 4:1, cells were restimulated with 10000 anti-CD 3/anti-CD28 beads for 5 hours (according to the technical description by J. P. Edwards et al., (2006) J Leukoc Biol 80, 1298-1307) and with 10 μg/mL Brefeldin A (Sigma-Aldrich) to inhibit cytokine secretion. Cells are then harvested, washed with PBS and incubated 15 minutes at 4° C. with mouse mAb anti-human CD4-PE (clone 13B8.2, Beckman-Coulter) in PBS with 5% FCS. Cells washed twice, are then fixed by 2% paraformaldehyde in PBS and permeabilized with 1% saponin in PBS. Intracellular staining is performed with AlloPhycoCyanin-conjugated rat anti-human IL10 (clone JES3-19F1, BD Bioscience) for 30 minutes at 4° C. in PBS with 1% saponin and analyzed by flow cytometry. Each condition is done in triplicate and results are expressed as the mean±SD. Intracellular IL10 mean fluorescence intensity (mfi) means across the differently activated monocytes are compared by one-way analysis of variance, the comparisons between CD4^+/CFSE^− and CD4^+/CFSE^+ cells are done with Student's t-test using Sigma Stat software (Systat Software).

By inhibition is commonly meant the drop in the measured response relative to a control, in per cent. Read a low inhibition as little suppression. As for `CN(/N=C/c1ccc(OP2(Oc3ccc(/C=N/N(C)P(=S)(Oc4ccc(CCN(CP(=O)(O)O)CP(=O)(O)O)cc4)Oc4ccc(CCN(CP(=O)(O)O)CP(=O)(O)O)cc4)cc3)=NP(Oc3ccc(/C=N/N(C)P(=S)(Oc4ccc(CCN(CP(=O)(O)O)CP(=O)(O)O)cc4)Oc4ccc(CCN(CP(=O)(O)O)CP(=O)(O)O)cc4)cc3)(Oc3ccc(/C=N/N(C)P(=S)(Oc4ccc(CCN(CP(=O)(O)O)CP(=O)(O)O)cc4)Oc4ccc(CCN(CP(=O)(O)O)CP(=O)(O)O)cc4)cc3)=NP(Oc3ccc(/C=N/N(C)P(=S)(Oc4ccc(CCN(CP(=O)(O)O)CP(=O)(O)O)cc4)Oc4ccc(CCN(CP(=O)(O)O)CP(=O)(O)O)cc4)cc3)(c3ccc(/C=N/N(C)P(=S)(Oc4ccc(CCN(CP(=O)(O)O)CP(=O)(O)O)cc4)Oc4ccc(CCN(CP(=O)(O)O)CP(=O)(O)O)cc4)cc3)=N2)cc1)P(=S)(Oc1ccc(CCN(CP(=O)(O)O)CP(=O)(O)O)cc1)Oc1ccc(CCN(CP(=O)(O)O)CP(=O)(O)O)cc1` (stereo not drawn) [Gc1], the inhibition at 0.2 µM in assay [1] (288 h, day 12) was roughly 60%; in assay [1] (360 h, day 15), roughly 80%. Besides, the results for the inhibition at 20 µM in assay [1] (day 12) and in assay [1] (day 15) were roughly 80% and roughly 50%, respectively. Further, the “disease severity clinical score (EAE, scale 0 to 5)” value in assay [2] (preventive protocol: 10 mg/kg intravenous from Day 1, every three days) is listed as “less than 1”; in assay [2] (therapeutic protocol: 10 mg/kg intravenous from Day 18, every three days) it was “about 1”. Moreover, the “differentiation of human monocytes in osteoclasts” value in assay [3] (20 μM added in the culture medium, 21 days) was “inhibits”; in assay [3] (monocytes pre-incubated with 20 μM during 6 hours, then rinsed), “inhibition”. Further, the “purified CD4 T lymphocytes that have divided” value in assay [4] worked out at 10.2%. Further, the arthritic score result in assay [5] is recorded as “significant decrease”. The paw swelling result in assay [5] is listed as “significant decrease”. For the same compound, the “production of IL10 by divided CD4+ T cells in MLR with da-monocytes” value in assay [6] was “significantly enhanced”.
